“Also recorded” adds a separate entry of the source. Ends that are not written are not given here.
Tests used:
K18 tau [1] = test: 15N K18 HSQC / TROSY-HSQC NMR with unlabeled Hsp27 constructs; type: binding, human; conditions: 50 µM 15N K18, 100 µM Hsp27 construct (2:1), 10 °C, TROSY titration
Experimental: For ^15N K18 HSQC NMR experiments, all proteins were dialyzed overnight into NMR buffer (25 mM HEPES pH 7.4, 10 mM KCl, 5 mM MgCl2, 1 mM TCEP, 10% (v/v) D2O). Then, samples containing 50 μM ^15N-labeled tau and 50 or 100 μM unlabeled chaperone in NMR buffer were prepared. 2D HSQC spectra were acquired at 10 °C on a Bruker Avance AV800 spectrometer equipped with a cryoprobe. 16 scans were acquired per t1 value and spectral widths of 2100 Hz and 10,416 Hz were used in the ^1H and ^15N dimensions, respectively. Spectra were processed using rNMR and Sparky based on deposited tau assignments (Barre 2013, BioMagResBank accession number 19253). Signal intensity ratios were calculated using Prism, by dividing the intensity of chaperone-bound peaks by intensity of the same peak in the unbound spectra.
The ^15N TROSY HSQC experiments were performed on a Bruker Avance 800 MHz spectrometer equipped with the TXO cryogenic probe at 283 K. The [U-^15N] K18 proteins were dissolved at a concentration of 0.05–0.15 mM in 25 mM Hepes, 10 mM KCl, 5 mM MgCl2, 1 mM TCEP at pH 7.0 and titrated with the Hsp27 proteins in the same buffer. The ^1H–^15N TROSY HSQC experiments were performed with 2048 direct (^1H) and 512 indirect (^15N) points with the spectral width of 16 ppm and 36 ppm, respectively. All NMR spectra were processed by Topspin 3.1, and analyzed with Sparky (Goddard and Kneller, SPARKY 3-NMR Assignment and Integration Software. University of California, San Francisco, CA).

0N4R tau = test: Tau aggregation assay (thioflavin T fluorescence), 0N4R; type: biochemical, human; conditions: 10 μM tau, chaperone 1:1 molar ratio (10 μM), heparin 44 µg/mL, 37 °C, Dulbecco's PBS pH 7.4
Experimental: (§1) Aggregation assays were performed as previously described. Briefly, all proteins were dialyzed overnight at 4 °C into assay buffer (Dulbecco’s PBS pH7.4, 2 mM MgCl2, 1 mM DTT). 0N4R or K18 Tau (10 μM) was pre-incubated in the presence/absence of chaperones (5–20 μM) for 30 min at 37 °C. Thioflavin T (Sigma) at a final concentration of 10 μM was added and aggregation was induced by the addition of a freshly prepared heparin sodium salt solution (Santa Cruz) at a final concentration of 44 µg/mL. For non-induced controls, assay buffer was added in place of heparin solution. The aggregation reaction was carried out at 37 °C with continuous shaking and monitored via Thioflavin T fluorescence (excitation = 444 nm, emission = 485 nm, cutoff = 480 nm) in a Spectramax M5 microplate reader (Molecular Devices). Readings were taken every 5 min for a minimum of 24 h. Baseline curves of non-induced controls (three replicates) were subtracted from induced samples (three replicates).

[2] = Thermal shift assay (differential scanning fluorimetry); type: physicochemical; conditions: DSF, 0.3 mg/mL in 50 mM NaPi pH 7.4, 700 mM NaCl, 50 mM LiCl, SYPRO Orange
Experimental: Samples of Hsp27 (25 µL; 0.3 mg/mL) in DSF buffer (50 mM NaPi pH 7.4, 700 mM NaCl, 50 mM LiCl) with a 5× final concentration of SYPRO Orange (Sigma) were placed into a white 96-well plate with optically clear caps. Melt curves were acquired on a Stratagene Mx300P RT-PCR using the SYPRO filter set. Samples were heated from 25 to 95 °C in 1 °C increments for 2 min, cooled to 25 °C at each cycle, and fluorescence was measured. The melting temperature was determined using a Boltzmann fit in Prism.

Hsp27 ACD [3] = biological target: T1, Hsp27 ACD (Homo sapiens, UniProt P04792); test: ITC of IPV-derived peptides with purified Hsp27 ACD; type: binding; conditions: Fig. 1d, 25 °C, one-site model; for N (binding stoichiometry): peptide (1 mM) into Hsp27 ACD (100 µM)
T1 construct: Hsp27 ACD (residues Q80–S176); made in house; host or cells: E. coli BL21 (DE3)
T1 sequence (P04792 80-176): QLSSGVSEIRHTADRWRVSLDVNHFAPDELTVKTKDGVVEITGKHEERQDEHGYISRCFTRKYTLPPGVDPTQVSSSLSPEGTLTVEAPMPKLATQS
Experimental: (§2) For experiments with BAG3, proteins were dialyzed overnight against ITC buffer (25 mM Hepes, 5 mM MgCl2, 100 mM KCl, pH 7.5). For experiments with peptides, sHSPs were dialyzed overnight against SEC buffer, and peptides were dissolved in dialysis buffer. Concentrations were determined using BCA assays (Thermo Scientific), and the ITC experiment was performed with a MicroCal ITC200 (GE Healthcare) at 25 °C. In BAG3 experiments, sHSP (200 µM) in the syringe was titrated into a 10 μM cell solution of BAG3 protein. For peptide binding experiments, peptide (1 mM) was titrated into a cell containing Hsp27 proteins (100 µM). Calorimetric parameters were calculated using Origin® 7.0 software and fit with a one-site binding model.

Hsp27 WT = biological target: T2, Hsp27 WT (Homo sapiens, UniProt P04792); test: ITC of optimized IPV peptide with Hsp27 WT; type: binding; conditions: Fig. 4b, peptide (1 mM) into full-length Hsp27 WT (100 µM), 25 °C, mean ± SEM, minimum of three independent experiments
T2 construct: Vectors for the expression of full-length human Hsp27; made in house; host or cells: E. coli BL21 (DE3)
T2 sequence (P04792 whole entry): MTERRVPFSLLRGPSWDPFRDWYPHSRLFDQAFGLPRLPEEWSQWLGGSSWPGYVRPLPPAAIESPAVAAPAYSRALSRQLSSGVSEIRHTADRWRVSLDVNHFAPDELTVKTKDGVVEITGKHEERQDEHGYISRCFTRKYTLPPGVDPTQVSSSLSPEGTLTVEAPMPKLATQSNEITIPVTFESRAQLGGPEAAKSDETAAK
Experimental: as §2

Hsp27 3D = biological target: T3, Hsp27 3D (Homo sapiens, UniProt P04792, S15D/S78D/S82D); test: ITC of optimized IPV peptide with Hsp27 3D; type: binding; conditions: Fig. 4b, peptide (1 mM) into Hsp27 3D (100 µM), 25 °C, mean ± SEM, minimum of three independent experiments
T3 construct: Sample aggregation curves of tau constructs with full-length Hsp27; made in house; host or cells: E. coli BL21 (DE3)
T3 sequence (P04792 whole entry S15D/S78D/S82D): as the sequence (P04792 whole entry) above, with S15D, S78D, S82D counted along it
Experimental: as §2

ΔNTD GPG = biological target: T4, ΔNTD GPG (Homo sapiens, UniProt P04792, I181G/V183G); test: ITC of optimized IPV peptide with Hsp27 ΔNTD GPG; type: binding; conditions: Fig. 4b, peptide (1 mM) into ΔNTD GPG (100 µM), 25 °C, mean ± SEM, minimum of three independent experiments
T4 construct: For all other Hsp27 constructs (GPG, ΔNTD consisting of residues 80–205); inferred from the PMCSG7 vector and Ni-NTA purification) (N); made in house; host or cells: E. coli BL21 (DE3)
T4 sequence (P04792 80-205 I181G/V183G limits assumed): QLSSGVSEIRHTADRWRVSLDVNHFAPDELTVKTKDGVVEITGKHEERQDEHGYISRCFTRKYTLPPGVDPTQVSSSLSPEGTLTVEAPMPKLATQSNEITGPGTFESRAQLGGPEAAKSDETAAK
Experimental: as §2

K18 tau [4] = test: Tau aggregation assay (thioflavin T fluorescence), K18; type: biochemical, human; conditions: 10 μM tau, chaperone 1:1 molar ratio (10 μM), heparin 44 µg/mL, 37 °C, Dulbecco's PBS pH 7.4
Experimental: as §1

K18 tau [5] = test: Competitive ELISA on immobilized K18 tau saturated with biotin-labelled Hsc70; parameters: species or system human; conditions: Supplementary Figure 3A, binding not saturable, read-out: IC50 (estimated), competition with biotin-labelled Hsc70 for immobilized K18 tau
Source text: B. Hsp27 ACD binding to K18tau cannot be measured by ITC
A. Hsp27 ACD has a weak affinity for tau,by ELISA
C. The interaction is also estimated tobe weak by NMR titration[Competitor], uM
D. NMR titration of VQIVYK peptide into
Supplementary Figure 3. Hsp27 ACD has a weak affinity for K18 tau. (A) K18 tau was immobilized onto ELISA plates and saturated with biotin-labelled, human Hsc70, which shares binding sites with Hsp27 ACD in the MTBRs. Competition with unlabelled Hsc70 (control) or Hsp27 ACD was then carried out. Hsp27 ACD was estimated to have an IC50 > 100 µM. (B) Binding of Hsp27 ACD to K18 tau was not able to be measured by ITC, due to solubility limits. (C) NMR titrations (see Figure S5A) also […]
interaction. CSPs of Hsp27 ACD in the presence of 3.3-fold molar excess of PHF6* peptide (500 µM).
(also on this page, place not known: [Competitor], OD450 tau, K18 tau to be by 4 normalized CSP [((δN/5) +γH ); ppm] 2 0.52 CSP (PPM) titration Hsp27) […]

BAG3 = test: Interaction of Hsp27 ACD with BAG3 by FCPIA; type: binding; conditions: Supplementary Figure 4
Hsp27 ACD [6] = biological target: T1, Hsp27 ACD; test: NMR titration of VQIVYK peptide into 1H-15N Hsp27 ACD; type: binding; conditions: 1H-15N ACD spectra, 3.3-fold molar excess of peptide (500 µM), Supplementary Figure 3D
[7] = Fig. 4a, Boltzmann fit, mean ± SD of three independent experiments

## 3D: pseudo-phosphorylation mutant; S15, S78 and S82 replaced with aspartate
K18 tau [1]
  Binding to 15N K18 tau by NMR (peak broadening / CSPs): binds to K18’s aggregation motifs
0N4R tau
  Effect on aggregation of 0N4R tau (ThT fluorescence): retains the ability to prevent tau aggregation
[2]; Supplementary Figure 8A
  TM: 72.2 ± 0.85 °C

## EIAIPVTHE [T180A]
Hsp27 ACD [3]
  N (binding stoichiometry): 0.65

## EITIPVTFE [Hsp27 IPV]
Hsp27 ACD [3]
  N (binding stoichiometry): 0.90
Hsp27 ACD [3]; peptide (1 mM) titrated into Hsp27 ACD (100 µM), SEC buffer (50 mM sodium phosphate, 100 mM NaCl), mean ± SEM, minimum of three independent experiments, ND = no detectable binding
  Kd: > 25 µM

## EITIPVTHE [Hsp27 IPV H]
Hsp27 WT
  Kd: does not bind
Hsp27 3D
  Kd: > 50 µM
ΔNTD GPG
  Kd: 14.3 µM

## GPG: Hsp27 with isoleucine and valine of the IPV mutated to glycine
K18 tau [1]
  Binding to 15N K18 tau by NMR (peak broadening / CSPs): bound to K18
[2]; [7]
  TM: 66.8 ± 0.3 °C

## Hsp27 ACD: α-crystallin domain of human Hsp27 (residues Q80–S176)
K18 tau [1]
  Binding to 15N K18 tau by NMR (peak broadening / CSPs): weak and unsaturable
K18 tau [4]
  Effect on aggregation of K18 tau (ThT fluorescence): no effect
0N4R tau
  Effect on aggregation of 0N4R tau (ThT fluorescence): no effect
K18 tau [5]
  IC50: > 100 µM

## Hsp27 X: WT Hsp27 cross-linked with gluteraldehyde
K18 tau [4]
  Effect on aggregation of K18 tau (ThT fluorescence): severely compromised
0N4R tau
  Effect on aggregation of 0N4R tau (ThT fluorescence): severely compromised

## L157A ACD: Hsp27 ACD mutant L157A
BAG3
  BAG3 binding: deficient in BAG3 binding

## VQIVYK [PHF6* peptide, 6-mer PHF6* peptide from tau]
Hsp27 ACD [6]
  Binding to Hsp27 ACD by NMR titration (chemical shift changes): unable to produce saturable chemical shift changes
Hsp27 ACD [6]; listed as VQIVYK peptide
  Binding to Hsp27 ACD by NMR titration (chemical shift changes): weak interaction; also recorded: weak/no

## WT: full-length human Hsp27
K18 tau [1]
  Binding to 15N K18 tau by NMR (peak broadening / CSPs): does not
K18 tau [1]; listed as full-length Hsp27
  Binding to 15N K18 tau by NMR (peak broadening / CSPs): no broadening or CSPs
K18 tau [4]
  Effect on aggregation of K18 tau (ThT fluorescence): prevents aggregation
0N4R tau
  Effect on aggregation of 0N4R tau (ThT fluorescence): prevents aggregation
[2]; [7]
  TM: 73.1 ± 1.1 °C
[2]; Supplementary Figure 8A
  TM: 72.2 ± 1.0 °C

## ΔNTD: Hsp27 with NTD deleted, residues 80–205
K18 tau [4]
  Effect on aggregation of K18 tau (ThT fluorescence): ablated Hsp27’s ability to delay tau aggregation
0N4R tau
  Effect on aggregation of 0N4R tau (ThT fluorescence): ablated Hsp27’s ability to delay tau aggregation

Source: PMC6212398, “Competing protein-protein interactions regulate binding of Hsp27 to its client protein tau” (Nature Communications, 2018)
